From patent US20170089887A1, “CONTRACTILITY ASSAY” (Nano3D Biosciences, Inc, priority 2011, published 2017)
Where two headings read alike, the source gives them in different places. Bridge positions count the residues as written; N and C are the ends. Square brackets hold non-standard residues; d marks the D form. Peptide text beside a SMILES is read from it. Orn = NCCC[C@H](N)C(=O)O; Mpa = O=C(O)CCS

Key:
preterm labor = conditions: cited from earlier work; for Onsef of action: clinical dose per Table 1; for Delay in delivery for 48 hrs: clinical treatment of preterm labor
[1] = cited from earlier work
myometrial strips = assay: Wire myography of ex vivo myometrial strips in organ bath; set-up: species or system human; conditions: 1 μM-1 mM
Description: Ex vivo tissue was also tested for comparison to the CBiO Assay. Uterine biopsies obtained from cesarean sections were cut into myometrial strips (10×2×2 mm) mounted in an organ chamber system bath (10 mL) containing Kreb's buffer maintained at 37° C. and bubbled with 5% CO2/95% O2 to maintain the pH at 7.4. Eight uterine strips were obtained form each individual biopsy. The strips were equilibrated for 1 h starting from a resting tension of 1 g and spontaneous uterine contractility was stabilized for isometric tension recording. […] Two uterine strips were exposed to each tocolytic drug, thereby conducting duplicate experiments for each drug. […] All tocolytic doses used were based from previous human myometrial contractility studies. […] For the ex vivo tissue contractile activity, myometrial strips were mounted in a myograph organ bath system. […] The contractile inhibitory response was the area change at 5 h for the CBiO Assay, and the AUC for myography (FIG. 7). The contractile inhibitory response (CIR) in this experiment was defined as the percent change in ring image pixels before and after drug exposure. Thus, FIG. 7 reports a change in size rather than a rate. However, rates can be reported if desired.

[2] = test system: myometrial smooth muscle cells; assay: CBiO Assay (contraction of magnetically 3D bioprinted rings); format: cell-based, human
Description: We developed an assay, the CBiO Assay (contractility BiO Assay) to mimic uterine contractility in vitro. The basis of this assay is one in which cells are magnetically 3D bioprinted into 3D rings (e.g., 0.125″ outer diameter, 0.0625″ inner diameter) in 384-well plates. After printing, the magnetic field is removed, and these rings contract immediately (<24 h), as cells within the ring contract, rearrange, and compact the ring.
Along with this CBiO assay, a mobile device-based imaging system (n3Dock) was used to image and measure whole plates of rings (FIG. 3). This imaging system is driven by an iPod Touch (Apple Computer, CA) that was programmed to automatically image plates at regular intervals (≧1 s) for the length of the experiment using a freely available app for download (Experimental Assistant, Nano3D Biosciences). Using the n3Dock to image rings is possible given the fine camera resolution of the iPod (5 MP, resolution=250 μm) (Timm, 2013), and the brown color of the ring imparted by the NS that provides contrast against the lightness of the surrounding media. As a result, the iPod captures images of whole plates in a compact dock that fits within most standard incubators. Of course, any smart phone or pad or tablet equipped with a camera could be used herein.
From the same tissue, cells were grown in vitro as monolayer cultures and then harvested. […]

Row | Compound | Onsef of action (preterm labor; as recommended by the manufacturer) [h] | Delay in delivery for 48 hrs (preterm labor) | Cmax (Peak plasma concentration) ([1]; clinical dose 50 mg oral, then 25 mg every 6 hrs, as recommended by the manufacturer) [µg/mL] | IND/NIF preference ratio (PR) (myometrial strips; Patient 1, AUC) | IND/NIF preference ratio (PR) (myometrial strips; Patient 2, AUC) | IND/NIF preference ratio (PR) ([2]; Patient 1, area change at 5 h) | IND/NIF preference ratio (PR) ([2]; Patient 2, area change at 5 h) | Onsef of action (preterm labor) [hr^63] | Cmax (Peak plasma concentration) ([1]; clinical dose per Table 1) [ng/ml^63]
1 | COc1ccc2c(c1)c(CC(=O)O)c(C)n2C(=O)c1ccc(Cl)cc1 [Indomethacin] | 2 | 90-94%^58-61 | 2 | 0.48 | 0.92 | 0.75 | 0.97 |  | 
2 | CCOc1ccc(C[C@H]2NC(=O)CCSSC[C@@H](C(=O)N3CCC[C@H]3C(=O)N[C@@H](CCCN)C(=O)NCC(N)=O)NC(=O)[C@H](CC(N)=O)NC(=O)[C@H]([C@@H](C)O)NC(=O)[C@H]([C@@H](C)CC)NC2=O)cc1 [Atosiban] ([Mpa][dY](Et)ITNCP[Orn]G-NH2; disulfide 1-6) |  | 93%^64 |  |  |  |  |  | 1 | 442
